Assays:
[1] = molecular target: HER4 (Homo sapiens, UniProt Q15303); assay: HER4 biochemical activity assay (HTRF)
Protocol: (§1) Assay 1: Wild-type EGFR, HER2 and HER4, and mutant EGFR biochemical activity assay
(§2) 10 nL of Serially diluted compounds were transferred to assay plates using the labcyte Echo 550, and 5 uL of 2× enzymes in assay buffer were subsequently dispensed. The assay plate was covered with an adhesive plate seal, and briefly spinned for 30 s at 1000 g. 5 uL of 2× TK-substrate-biotin and ATP mixed in assay buffer were added.
(§3) IC50 was calculated and analyzed using a 4 parametric logistic model.

[2] = system: LU-0387; assay: Xenograft mouse model LU-0387; assay type: in vivo, nude mice
[3] = molecular target: HER2 (Homo sapiens, UniProt P04626); assay: HER2 biochemical activity assay (HTRF)
Protocol: as §1, §2, §3

[4] = molecular target: EGFR Del19 (Homo sapiens, UniProt P00533); assay: Mutant EGFR biochemical activity assay (HTRF)
Protocol: as §1, §2, §3

[5] = molecular target: EGFR T790M/L858R (Homo sapiens, UniProt P00533, L858R/T790M); assay: Mutant EGFR biochemical activity assay (HTRF)
Protocol: as §1, §2, §3

[6] = molecular target: EGFR T790M (Homo sapiens, UniProt P00533, T790M); assay: Mutant EGFR biochemical activity assay (HTRF)
Protocol: as §1, §2, §3

[7] = molecular target: EGFR D770-N771insNPG (Homo sapiens, UniProt P00533, INS770NPG); assay: Mutant EGFR biochemical activity assay (HTRF)
Protocol: as §1, §2, §3

[8] = molecular target: EGFR L792F (Homo sapiens, UniProt P00533, L792F); assay: Mutant EGFR biochemical activity assay (HTRF)
Protocol: as §1, §2, §3

[9] = molecular target: EGFR D770GY (Homo sapiens, UniProt P00533, D770Y/INS769G); assay: Mutant EGFR biochemical activity assay (HTRF)
Protocol: as §1, §2, §3

[10] = molecular target: EGFR D770_N771insNPG T790M (Homo sapiens, UniProt P00533, INS770NPG/T790M); assay: Mutant EGFR biochemical activity assay (HTRF); settings: read-out: IC50 (nM) EGFR D770_N771 insNPG T790M
Protocol: as §1, §2, §3

[11] = molecular target: EGFR A763_Y764insFHEA (Homo sapiens, UniProt P00533, INS763FHEA); assay: Mutant EGFR biochemical activity assay (HTRF); settings: read-out: IC50 (nM) EGFR A763_Y764 insFHEA
Protocol: as §1, §2, §3

[12] = molecular target: EGFR L792H (Homo sapiens, UniProt P00533, L792H); assay: Mutant EGFR biochemical activity assay (HTRF)
Protocol: as §1, §2, §3

[13] = system: H1975; assay: Cell line-derived xenograft (CDX) mouse model; assay type: in vivo, nude mice
Protocol: Assay 3. In vivo studies in cell line-derived (CDX) and patient derived xenografts (PDX) mouse models
Cells (H1975) or tissue pieces (LU0493 and LU0426) were implanted subcutaneously into the left armpit of nude mice. When the average tumor volume reached 100-150 mm^3, mice were randomized by tumor volume and treated with vehicle, compound 1 or poziotinib respectively. Tumor volume and body weight were measured twice per week. Mice were sacrificed on day 21 or day 28, and tumor volume and terminal body weight were recorded. The relative tumor volume, percent of treatment/control values and tumor growth inhibition were calculated and statistics was performed.
Terminal body weight changes were calculated as percentage of body changes from day 1 to day 21.

[14] = system: A431 (wild type EGFR, skin cancer); assay: Cell proliferation assay (MTT); assay type: cell-based; settings: Homo sapiens, A-431, 72 h, three days
Protocol: (§4) A431 cells, H1975 and Ba/F3 cells expressing various mutant EGFR were harvested from exponential phase cultures and seeded in 96-well plates at a cell density of 3000 per well for A431 and H1975, and 10000 per well for Ba/F3 cells. After overnight attachment, compounds were 3-fold serially diluted and applied to cells at 30 μM, 10 μM, 3 μM, 1 μM, 0.3 μM, […], 0.03 μM and 0.01 μM with triplicates, and incubated for three days. 20 μL of 5 mg/mL MTT was added afterwards followed by the further addition of 50 μL 10% SDS together with 5% isobutyl alcohol in 0.01 mol/L HCl. The plates were incubated overnight. Absorbance (A) at a wavelength of 570 nm was quantified. Percentage of inhibition was used for the calculation of IC50 based on the bliss method.

[15] = molecular target: Ba/F3_EGFR D770_N771insSVD (Homo sapiens, UniProt P00533, DUP768-770, cells depend on it); assay: Cell proliferation assay (MTT); assay type: cell-based; settings: three days, read-out: Ba/F3_EGFR D770_N771insSVD IC50
Protocol: as §4

[16] = system: H1975 (EGFR L858R/T790M, NSCLC); assay: Cell proliferation assay (MTT); assay type: cell-based; settings: Homo sapiens, NCI-H1975, 72 h, three days
Protocol: as §4

[17] = molecular target: Ba/F3_EGFR V769_D770insASV (Homo sapiens, UniProt P00533, DUP767-769, cells depend on it); assay: Cell proliferation assay (MTT); assay type: cell-based; settings: three days, read-out: Ba/F3_EGFR V769_D770insASV IC50
Protocol: as §4

[18] = system: PC9 cells expressing luciferase; assay: In vivo orthotopic brain PC9 xenograft mouse model; settings: oral
Protocol: Assay 4. In vivo orthotopic brain PC9 xenograft mouse model
3×10^5 PC9 cells expressing luciferase were injected to the mouse brain. Mice were randomized based on brain flurorescence intensity and body weight, and were orally administered vehicle or compound 1. Survival and body weights were monitored every day and mice with more than 20% body weight loss were sacrificed.

[19] = molecular target: EGFR-WT (Homo sapiens, UniProt P00533); assay: Wild-type EGFR biochemical activity assay (HTRF)
Protocol: as §1, §2, §3

EGFR L792F, sequence (P00533 25-1210 L792F): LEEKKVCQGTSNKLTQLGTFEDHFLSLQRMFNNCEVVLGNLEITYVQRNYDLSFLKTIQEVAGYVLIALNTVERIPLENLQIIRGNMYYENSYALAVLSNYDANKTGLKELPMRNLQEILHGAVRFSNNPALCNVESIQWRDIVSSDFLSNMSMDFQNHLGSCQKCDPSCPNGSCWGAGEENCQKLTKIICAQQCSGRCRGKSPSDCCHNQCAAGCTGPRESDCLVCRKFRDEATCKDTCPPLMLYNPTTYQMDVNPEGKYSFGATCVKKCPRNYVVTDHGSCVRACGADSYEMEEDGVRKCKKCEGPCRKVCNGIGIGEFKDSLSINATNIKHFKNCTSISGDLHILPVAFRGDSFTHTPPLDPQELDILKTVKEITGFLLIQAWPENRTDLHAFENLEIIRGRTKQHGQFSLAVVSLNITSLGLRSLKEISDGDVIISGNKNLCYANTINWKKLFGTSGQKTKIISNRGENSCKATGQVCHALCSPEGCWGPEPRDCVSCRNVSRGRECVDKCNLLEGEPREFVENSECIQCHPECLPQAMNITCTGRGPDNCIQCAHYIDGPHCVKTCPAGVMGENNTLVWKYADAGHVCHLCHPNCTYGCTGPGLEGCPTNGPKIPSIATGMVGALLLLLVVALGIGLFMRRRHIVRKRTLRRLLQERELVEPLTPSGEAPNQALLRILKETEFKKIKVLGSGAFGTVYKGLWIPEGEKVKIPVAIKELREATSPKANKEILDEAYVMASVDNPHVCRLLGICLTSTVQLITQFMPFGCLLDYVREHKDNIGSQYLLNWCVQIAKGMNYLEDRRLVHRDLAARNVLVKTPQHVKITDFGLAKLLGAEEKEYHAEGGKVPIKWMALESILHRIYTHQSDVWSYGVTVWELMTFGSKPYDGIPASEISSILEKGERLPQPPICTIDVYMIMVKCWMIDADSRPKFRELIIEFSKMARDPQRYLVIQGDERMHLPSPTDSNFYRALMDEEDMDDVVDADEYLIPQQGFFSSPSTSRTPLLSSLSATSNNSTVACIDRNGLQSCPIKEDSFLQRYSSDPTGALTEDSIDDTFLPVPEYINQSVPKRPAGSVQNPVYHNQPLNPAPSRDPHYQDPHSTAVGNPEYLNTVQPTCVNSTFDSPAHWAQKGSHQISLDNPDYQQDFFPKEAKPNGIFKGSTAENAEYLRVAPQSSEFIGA
EGFR T790M, sequence (P00533 25-1210 T790M): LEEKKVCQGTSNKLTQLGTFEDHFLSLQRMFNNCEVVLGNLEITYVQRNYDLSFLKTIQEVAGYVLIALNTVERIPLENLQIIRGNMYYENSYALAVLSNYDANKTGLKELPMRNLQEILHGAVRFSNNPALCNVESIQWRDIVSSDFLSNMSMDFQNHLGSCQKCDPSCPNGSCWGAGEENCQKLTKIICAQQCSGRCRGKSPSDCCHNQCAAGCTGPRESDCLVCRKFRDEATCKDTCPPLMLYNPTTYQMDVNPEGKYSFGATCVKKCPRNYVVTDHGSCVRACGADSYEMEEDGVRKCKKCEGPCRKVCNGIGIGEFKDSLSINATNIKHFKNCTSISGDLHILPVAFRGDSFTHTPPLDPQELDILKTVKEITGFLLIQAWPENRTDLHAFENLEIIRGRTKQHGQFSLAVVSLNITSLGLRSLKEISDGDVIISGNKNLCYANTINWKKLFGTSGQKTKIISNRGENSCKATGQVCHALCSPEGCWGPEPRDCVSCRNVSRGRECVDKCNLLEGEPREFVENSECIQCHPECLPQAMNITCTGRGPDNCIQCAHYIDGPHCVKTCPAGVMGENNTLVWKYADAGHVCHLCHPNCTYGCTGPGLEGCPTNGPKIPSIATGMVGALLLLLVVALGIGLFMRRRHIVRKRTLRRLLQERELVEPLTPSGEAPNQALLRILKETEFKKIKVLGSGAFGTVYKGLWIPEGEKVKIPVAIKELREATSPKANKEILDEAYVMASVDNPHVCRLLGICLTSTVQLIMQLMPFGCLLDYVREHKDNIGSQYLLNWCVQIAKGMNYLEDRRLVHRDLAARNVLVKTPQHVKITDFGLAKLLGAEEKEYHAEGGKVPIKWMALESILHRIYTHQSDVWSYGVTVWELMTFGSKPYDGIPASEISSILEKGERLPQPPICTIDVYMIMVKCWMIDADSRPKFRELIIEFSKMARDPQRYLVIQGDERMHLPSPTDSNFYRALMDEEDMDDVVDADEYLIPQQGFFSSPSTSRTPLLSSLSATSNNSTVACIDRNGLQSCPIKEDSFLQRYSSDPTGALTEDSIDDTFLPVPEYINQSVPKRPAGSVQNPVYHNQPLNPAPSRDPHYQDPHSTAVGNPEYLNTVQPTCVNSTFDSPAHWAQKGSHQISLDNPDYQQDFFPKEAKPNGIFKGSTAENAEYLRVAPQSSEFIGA
EGFR-WT, sequence (P00533 25-1210): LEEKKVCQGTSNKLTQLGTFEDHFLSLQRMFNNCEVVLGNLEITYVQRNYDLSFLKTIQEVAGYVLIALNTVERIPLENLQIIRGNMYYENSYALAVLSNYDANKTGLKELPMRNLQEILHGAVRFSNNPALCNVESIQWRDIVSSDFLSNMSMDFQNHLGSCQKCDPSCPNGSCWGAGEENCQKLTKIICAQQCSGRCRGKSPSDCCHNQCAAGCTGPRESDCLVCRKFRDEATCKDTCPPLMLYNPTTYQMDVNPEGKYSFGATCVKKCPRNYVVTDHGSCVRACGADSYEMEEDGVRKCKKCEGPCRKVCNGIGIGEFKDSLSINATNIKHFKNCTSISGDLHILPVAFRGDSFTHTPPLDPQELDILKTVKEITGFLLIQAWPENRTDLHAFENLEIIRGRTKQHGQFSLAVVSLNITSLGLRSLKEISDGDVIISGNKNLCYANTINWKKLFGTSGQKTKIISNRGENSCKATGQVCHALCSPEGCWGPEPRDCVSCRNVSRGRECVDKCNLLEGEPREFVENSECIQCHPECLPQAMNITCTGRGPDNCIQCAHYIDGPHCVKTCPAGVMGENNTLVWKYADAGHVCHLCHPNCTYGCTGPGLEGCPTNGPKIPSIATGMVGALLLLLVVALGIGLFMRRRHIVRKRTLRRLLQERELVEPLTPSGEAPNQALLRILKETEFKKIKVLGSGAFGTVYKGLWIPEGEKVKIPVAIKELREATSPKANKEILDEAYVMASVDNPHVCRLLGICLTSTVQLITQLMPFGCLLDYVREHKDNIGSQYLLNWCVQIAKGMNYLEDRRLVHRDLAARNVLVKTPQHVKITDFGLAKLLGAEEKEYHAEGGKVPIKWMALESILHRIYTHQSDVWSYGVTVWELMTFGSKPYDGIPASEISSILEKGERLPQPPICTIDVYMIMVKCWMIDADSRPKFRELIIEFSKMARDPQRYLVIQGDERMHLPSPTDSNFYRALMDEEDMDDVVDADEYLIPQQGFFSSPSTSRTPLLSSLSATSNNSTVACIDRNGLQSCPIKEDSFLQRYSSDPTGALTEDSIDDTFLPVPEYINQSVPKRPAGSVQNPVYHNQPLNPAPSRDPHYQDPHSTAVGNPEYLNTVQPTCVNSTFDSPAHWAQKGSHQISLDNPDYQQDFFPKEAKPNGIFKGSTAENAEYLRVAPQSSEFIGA
EGFR Del19, sequence (P00533 with tags, fused parts or gaps DEL746-750): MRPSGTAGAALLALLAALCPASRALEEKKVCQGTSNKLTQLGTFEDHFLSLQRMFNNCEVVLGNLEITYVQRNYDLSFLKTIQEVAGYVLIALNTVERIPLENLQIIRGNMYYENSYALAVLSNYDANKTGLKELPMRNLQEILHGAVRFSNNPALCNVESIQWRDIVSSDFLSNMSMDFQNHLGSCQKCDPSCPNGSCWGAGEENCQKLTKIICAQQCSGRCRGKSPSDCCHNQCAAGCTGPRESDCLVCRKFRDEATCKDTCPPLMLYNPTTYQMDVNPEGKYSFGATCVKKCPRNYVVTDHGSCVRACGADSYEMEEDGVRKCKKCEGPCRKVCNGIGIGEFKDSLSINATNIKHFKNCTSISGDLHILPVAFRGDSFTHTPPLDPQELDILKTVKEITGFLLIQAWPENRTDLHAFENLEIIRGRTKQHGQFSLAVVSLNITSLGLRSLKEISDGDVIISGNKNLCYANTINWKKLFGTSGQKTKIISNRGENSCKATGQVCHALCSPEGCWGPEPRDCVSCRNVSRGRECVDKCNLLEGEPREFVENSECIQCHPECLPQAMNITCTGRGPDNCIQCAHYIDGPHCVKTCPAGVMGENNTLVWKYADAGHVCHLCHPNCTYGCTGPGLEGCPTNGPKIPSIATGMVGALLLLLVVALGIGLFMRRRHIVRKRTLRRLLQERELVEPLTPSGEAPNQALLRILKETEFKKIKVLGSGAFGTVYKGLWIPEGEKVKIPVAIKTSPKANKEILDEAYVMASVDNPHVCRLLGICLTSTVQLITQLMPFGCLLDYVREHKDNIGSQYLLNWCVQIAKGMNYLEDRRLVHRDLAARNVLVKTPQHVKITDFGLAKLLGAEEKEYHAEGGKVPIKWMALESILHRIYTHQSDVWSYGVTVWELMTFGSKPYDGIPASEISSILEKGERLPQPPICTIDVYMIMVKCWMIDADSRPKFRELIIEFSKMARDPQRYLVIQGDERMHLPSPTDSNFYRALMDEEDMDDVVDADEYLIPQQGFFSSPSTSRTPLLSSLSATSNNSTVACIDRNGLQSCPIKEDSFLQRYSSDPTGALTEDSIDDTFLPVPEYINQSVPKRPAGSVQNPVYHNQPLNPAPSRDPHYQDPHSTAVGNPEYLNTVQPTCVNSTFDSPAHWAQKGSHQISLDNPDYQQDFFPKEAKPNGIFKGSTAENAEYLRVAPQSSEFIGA

Compound: C=CC(=O)Nc1cc(Nc2nccc(-n3c(=O)n4c5c(cc(F)cc53)CCC4)n2)c(OC)cc1N(C)CCN(C)C [Compound 1, N-(2-((2-(dimethylamino)ethyl)(methyl)amino)-5-((4-(8-fluoro-2-oxo-5,6-dihydro-4H-imidazo[4,5,1-ij]quinolin-1(2H)-yl)pyrimidin-2-yl)amino)-4-methoxyphenyl)acrylamide]
- IC50 [1]: 0.769 nM
- TGI (%) ([2]; LU-0387, 30 mg/kg compound 1): 42%
- Terminal body weight changes (%) ([2]; LU-0387, 30 mg/kg compound 1, day 1 to day 21): −7.75%
- TGI (%) ([2]; LU-0387, 60 mg/kg compound 1): 95%
- Terminal body weight changes (%) ([2]; LU-0387, 60 mg/kg compound 1, day 1 to day 21): 1.26%
- IC50 [3]: 35.1 nM
- IC50 [4]: 0.175 nM
- IC50 [5]: 0.0639 nM
- IC50 [6]: 0.0526 nM
- IC50 [7]: 0.063 nM
- IC50 [8]: 1.26 nM
- IC50 [9]: 0.0649 nM
- IC50 [10]: 0.049 nM
- IC50 [11]: 0.264 nM
- IC50 [12]: 27.6 nM
- TGI (%) ([13]; H1975, 15 mg/kg compound 1): 98%
- Terminal body weight changes (%) ([13]; H1975, 15 mg/kg compound 1, day 1 to day 21): 3.9%
- TGI (%) ([13]; H1975, 30 mg/kg compound 1): 106%
- Terminal body weight changes (%) ([13]; H1975, 30 mg/kg compound 1, day 1 to day 21): 5.1%
- TGI (%) ([13]; H1975, 60 mg/kg compound 1): 108%
- Terminal body weight changes (%) ([13]; H1975, 60 mg/kg compound 1, day 1 to day 21): −4.1%
- IC50 [14]: 157 nM
- GI50 [15]: 7.06 nM
- IC50 [16]: 52.9 nM
- GI50 [17]: 20.2 nM
- Mice Survival Rate (%) ([18]; 30 mg/kg QD, Day 16): 100%
- Mice Survival Rate (%) ([18]; 30 mg/kg QD, Day 17): 100%
- Mice Survival Rate (%) ([18]; 30 mg/kg QD, Day 18): 100%
- Mice Survival Rate (%) ([18]; 30 mg/kg QD, Day 22): 100%
- Mice Survival Rate (%) ([18]; 30 mg/kg QD, Day 24): 100%
- Mice Survival Rate (%) ([18]; 30 mg/kg QD, Day 26): 100%
- Mice Survival Rate (%) ([18]; 30 mg/kg QD, Day 28): 100%
- Mice Survival Rate (%) ([18]; 60 mg/kg BID, Day 16): 100%
- Mice Survival Rate (%) ([18]; 60 mg/kg BID, Day 17): 100%
- Mice Survival Rate (%) ([18]; 60 mg/kg BID, Day 18): 100%
- Mice Survival Rate (%) ([18]; 60 mg/kg BID, Day 22): 100%
- Mice Survival Rate (%) ([18]; 60 mg/kg BID, Day 24): 100%
- Mice Survival Rate (%) ([18]; 60 mg/kg BID, Day 26): 100%
- Mice Survival Rate (%) ([18]; 60 mg/kg BID, Day 28): 100%
- Mice Survival Rate (%) ([18]; 60 mg/kg QD, Day 16): 100%
- Mice Survival Rate (%) ([18]; 60 mg/kg QD, Day 17): 100%
- Mice Survival Rate (%) ([18]; 60 mg/kg QD, Day 18): 100%
- Mice Survival Rate (%) ([18]; 60 mg/kg QD, Day 22): 100%
- Mice Survival Rate (%) ([18]; 60 mg/kg QD, Day 24): 100%
- Mice Survival Rate (%) ([18]; 60 mg/kg QD, Day 26): 100%
- Mice Survival Rate (%) ([18]; 60 mg/kg QD, Day 28): 100%
- IC50 [19]: 1.56 nM
